Data from patent US20210253710A1, “DIAGNOSTIC AND THERAPEUTIC METHODS FOR KIDNEY CANCER” (Genentech, Inc., priority 2018, published 2021).
Where two headings read alike, the source gives them in different places. Marks after values point to notes of the source that are not given here.

Assays:
[1] = test system: safety-evaluable patients with locally advanced or metastatic RCC; assay: IMmotion151 safety (adverse events, AESI); format: in vivo; conditions: for Patients with ≥ 1 event: Adrenal insufficiency, All Grades / Patients with ≥ 1 event: Adrenal insufficiency, Grade 3-4 / Patients with ≥ 1 event: Colitis, All Grades / Patients with ≥ 1 event: Colitis, Grade 3-4 / Patients with ≥ 1 event: Hyperthyroidism, All Grades / Patients with ≥ 1 event: Hyperthyroidism, Grade 3-4 / Patients with ≥ 1 event: Hypothyroidism, All Grades / Patients with ≥ 1 event: Hypothyroidism, Grade 3-4 / Patients with ≥ 1 event: Liver function test abnormalities, All Grades / Patients with ≥ 1 event: Liver function test abnormalities, Grade 3-4 / Patients with ≥ 1 event: Pneumonitis, All Grades / Patients with ≥ 1 event: Pneumonitis, Grade 3-4 / Patients with ≥ 1 event: Rash, All Grades / Patients with ≥ 1 event: Rash, Grade 3-4: AESI; for Patients with ≥ 1 event: Any AESI, All Grades / Patients with ≥ 1 event: Any AESI, Grade 3-4: all treatment-emergent AEs
Description: Patients in the Atezolizumab+Bevacizumab (“Atezo+Bev”) arm received both atezolizumab and bevacizumab until loss of clinical benefit, unacceptable toxicity or symptomatic deterioration attributed to disease progression, withdrawal of consent, or death, whichever occured first. Atezolizumab was administered at a fixed dose of 1200 milligrams (mg) via intravenous (IV) infusion on Days 1 and 22 of each 42-day cycle. Bevacizumab was be administered at a dose of 15 milligrams per kilogram (mg/kg) via IV infusion on Days 1 and 22 of each 42-day cycle. Patients in the sunitinib arm received sunitinib until loss of clinical benefit, unacceptable toxicity or symptomatic deterioration attributed to disease progression, withdrawal of consent, or death, whichever occured first. Sunitinib was administered at a dose of 50 mg once daily, orally via capsule, on Day 1 through Day 28 of each 42-day cycle.
(§1) IMmotion151 is a multicenter, randomized, open-label, Phase III study evaluating the efficacy and safety of atezolizumab+bevacizumab vs those of sunitinib in patients with previously untreated, inoperable, locally advanced or metastatic RCC (FIG. 1). The co-primary endpoints were (i) investigator (INV)-assessed progression-free survival (PFS) in patients with ≥1% IC expressing PD-L1 (PD-L1+) and (ii) interim overall survival (OS) in the intent-to-treat (ITT) population. Secondary endpoints inclue INV-assessed PFS and OS in patients with sarcomatoid histology and are reported here with INV-assessed objective response rate (ORR), safety, patient-reported outcomes (PROs) of symptoms and function and biomarker evaluation.
Patients were included in this subgroup analysis if their tumor had any component of sarcomatoid histology, referred to in this presentation as “All Sarc,” as reported by the investigator per the local pathology report. P values are for descriptive purposes only. […] The clinical cutoff for PFS, ORR, PRO and safety was Sep. […] The clinical cutoff for OS was Aug.

[2] = test system: patients with inoperable, locally advanced, or metastatic RCC; conditions: Rini et al. Lancet 2019, cited from earlier work; for Median OS: clinical cutoff Aug. 13, 2018; for Confirmed INV-assessed ORR / Median INV-assessed PFS: clinical cutoff Sep. 29, 2017
[3] = test system: patients with metastatic RCC with sarcomatoid histology; assay: IMmotion151 subgroup analysis: efficacy in patients whose tumors had sarcomatoid histology; format: in vivo, human; conditions: for Median OS: clinical cutoff Aug. 13, 2018; for Confirmed INV-assessed ORR / Median INV-assessed PFS: clinical cutoff Sep. 29, 2017
Text: Sarcomatoid renal carcinoma was defined as any histologic type of renal cell carcinoma containing a focus/foci of high-grade malignant spindle cells of any component relative to the entire tumor area. Such a classification required evidence of epithelial differentiation with concurrent areas of renal cell carcinoma or evidence of epithelial differentiation in the spindle cells with immunohistochemical positivity for keratin or epithelial membrane antigen (EMA). Frequent patterns include fibrosarcoma, malignant fibrous histiocytoma, and rhabdomyosarcoma. Focal spindling due to noncohesion of tumor cells was not considered to represent sarcomatoid differentiation. Any spindle component relative to the entire tumor area was sufficient. The degree of sarcomatoid differentiation was recorded as 1) any component, 2) >20% component, or 3) predominant sarcomatoid component.
as §1
Patients were included in this subgroup analysis if their tumor had any component of sarcomatoid histology, referred to in this presentation as “All Sarc,” as reported by the investigator per the local pathology report. P values are for descriptive purposes only. Gene expression analyses of baseline tumor samples were performed as previously described and focused on T-effector and angiogenesis signatures (see, e.g., McDermott et al. Nat. Med. 24:749-757, 2018). The clinical cutoff for PFS, ORR, PRO and safety was Sep. 29, 2017, with a median follow-up of 13 months. The clinical cutoff for OS was Aug. 13, 2018, with a median follow-up of 17 months.

[4] = test system: patients with inoperable, locally advanced, or metastatic RCC; assay: IMmotion151 Phase III study: efficacy of atezolizumab plus bevacizumab versus sunitinib (ITT and PD-L1+ populations); format: in vivo, human; conditions: investigator-assessed
Text: The IMmotion151 study (ClinicalTrials.gov Identifier NCT02420821) is a multi-center, randomized, open-label study to evaluate the efficacy and safety of atezolizumab plus bevacizumab versus sunitinib in patients with inoperable, locally advanced, or metastatic RCC who have not received prior systemic active or experimental therapy in either the adjuvant or metastatic setting. The co-primary endpoints of the study were PFS in the PD-L1^+ subgroup, and OS in the ITT population. The exploratory endpoints included biomarker characterization in sarcomatoid tumors and MSKCC risk subgroups, as well as validation of gene signatures from the IMmotion150 study and their association with PFS. […]
as §1, with “Secondary endpoints inclue INV-assessed PFS and OS in patients with sarcomatoid histology and are reported here with INV-assessed objective response rate (ORR), safety, patient-reported outcomes (PROs) of symptoms and function and biomarker evaluation.” left out

[5] = test system: patients with untreated metastatic renal cell carcinoma; assay: IMmotion151 PFS analysis in biomarker-evaluable subgroups (Angio and Teff gene signatures, MSKCC risk); format: in vivo, human
Description: The MSKCC (Motzer) criteria used were as follows. The risk factors included 1) a Karnofsky Performance Status (KPS) score <80; 2) a corrected serum calcium >10 mg/dL; 3) an LDH level >1.5 times the upper limit of normal; 4) a hemoglobin level <the lower limit of normal; 5) a time from nephrectomy to systemic therapy of […] (an individual also was scored as having this risk factor if they were initially assessed with metastatic disease or if they have had no nephrectomy). The risk stratification was as follows: individuals having 3 risk factors belong to the poor risk subgroup; individuals having 1 or 2 risk factors belong to the intermediate risk subgroup; and individuals having 0 risk factors belong to the favorable group. For study purposes, systemic therapy was designated as the date of initial study screening. The formula for corrected calcium was Corrected calcium=serum calcium (mg/dL)+0.8 (4 […] serum albumin (g/dL)).
In the phase II IMmotion150 study, gene signatures were identified based on association with clinical outcome. The T-effector (“Teff”) signature included CD8a, IFNG, PRF1, EOMES, and CD274. The Angiogenesis (“Angio”) signature included VEGFA, KDR, ESM1, PECAM1, CD34, and ANGPTL4. […] In the IMmotion151 study, a pre-specified analysis of association with PFS was performed. Unstratified HR and log-rank test were used for PFS analyses in biomarker-evaluable patients. The IMmotion151 transcriptome map confirmed biological subgroups identified in […], including the angiogenesis, immune and antigen presentation (including the Teff signature), and myeloid inflammation subgroups (FIG. 4).

[6] = patients with >20% sarcomatoid component

## CCN(CC)CCNC(=O)c1c(C)[nH]c(/C=C2\C(=O)Nc3ccc(F)cc32)c1C [Sunitinib, N-[2-(Diethylamino)ethyl]-5-[(Z)-(5-fluoro-2-oxo-1,2-dihydro-3H-indol-3-ylidene)methyl]-2,4-dimethyl-1H-pyrrole-3-carboxamide]
[1]; All Safety Evaluable
  Treatment-related AEs: 96%
  Treatment-related AEs leading to discontinuation of any treatment component: 8%
  Treatment-related AEs leading to discontinuation of treatment regimen: 8%
  Treatment-related AEs, Grade 3-4: 54%
  Treatment-related deaths: 1^e n
  Patients with ≥ 1 event: Adrenal insufficiency, All Grades: 0%
  Patients with ≥ 1 event: Adrenal insufficiency, Grade 3-4: 0%
  Patients with ≥ 1 event: Colitis, All Grades: <1%
  Patients with ≥ 1 event: Colitis, Grade 3-4: <1%
  Patients with ≥ 1 event: Hyperthyroidism, All Grades: 3%
  Patients with ≥ 1 event: Hyperthyroidism, Grade 3-4: 0%
  Patients with ≥ 1 event: Hypothyroidism, All Grades: 26%
  Patients with ≥ 1 event: Hypothyroidism, Grade 3-4: <1%
  Patients with ≥ 1 event: Liver function test abnormalities, All Grades: 18%
  Patients with ≥ 1 event: Liver function test abnormalities, Grade 3-4: 4%
  Patients with ≥ 1 event: Pneumonitis, All Grades: 0%
  Patients with ≥ 1 event: Pneumonitis, Grade 3-4: 0%
  Patients with ≥ 1 event: Rash, All Grades: 15%
  Patients with ≥ 1 event: Rash, Grade 3-4: <1%
  Patients with ≥ 1 event: Any AESI, All Grades: 72%
  Patients with ≥ 1 event: Any AESI, Grade 3-4: 17%
[1]; Sarc Safety Evaluable
  Treatment-related AEs: 94%
  Treatment-related AEs leading to discontinuation of any treatment component: 3%
  Treatment-related AEs leading to discontinuation of treatment regimen: 3%
  Treatment-related AEs, Grade 3-4: 49%
  Treatment-related deaths: 0 n
  Patients with ≥ 1 event: Adrenal insufficiency, All Grades: 0%
  Patients with ≥ 1 event: Adrenal insufficiency, Grade 3-4: 0%
  Patients with ≥ 1 event: Colitis, All Grades: 1%
  Patients with ≥ 1 event: Colitis, Grade 3-4: 0%
  Patients with ≥ 1 event: Hyperthyroidism, All Grades: 1%
  Patients with ≥ 1 event: Hyperthyroidism, Grade 3-4: 0%
  Patients with ≥ 1 event: Hypothyroidism, All Grades: 16%
  Patients with ≥ 1 event: Hypothyroidism, Grade 3-4: 0%
  Patients with ≥ 1 event: Liver function test abnormalities, All Grades: 10%
  Patients with ≥ 1 event: Liver function test abnormalities, Grade 3-4: 3%
  Patients with ≥ 1 event: Pneumonitis, All Grades: 0%
  Patients with ≥ 1 event: Pneumonitis, Grade 3-4: 0%
  Patients with ≥ 1 event: Rash, All Grades: 14%
  Patients with ≥ 1 event: Rash, Grade 3-4: 0%
  Patients with ≥ 1 event: Any AESI, All Grades: 66%
  Patients with ≥ 1 event: Any AESI, Grade 3-4: 11%
[2]; ITT
  CR: 2%
  Ongoing responses: 90 n
  Median OS: 34.9 mo
  Confirmed INV-assessed ORR: 33%
  Median INV-assessed PFS: 8.4 mo
[2]; PD-L1 + ITT
  CR: 4%
  Ongoing responses: 34 n
  Median OS: 32.7 mo
  Confirmed INV-assessed ORR: 35%
  Median INV-assessed PFS: 7.7 mo
[3]; All Sarc
  CR: 3%
  Ongoing responses: 3 n
  Median OS: 15.4 mo
  Confirmed INV-assessed ORR: 14%
  Median INV-assessed PFS: 5.3 mo
[3]; PD-Li + Sarc
  CR: 4%
  Ongoing responses: 0 n
  Median OS: 15.0 mo
  Confirmed INV-assessed ORR: 12%
  Median INV-assessed PFS: 5.6 mo
[3]; [6]
  CR rate: 0%
  ORR: 4%
[3]; patients with sarcomatoid differentiation (Example 1)
  overall response rate (ORR): 18%
[4]; ITT population
  median PFS: 8.4 months
[4]; PD-L1+ patients
  median PFS: 7.7 months
[5]; Teff High versus Low within arm, in words
  Teff gene signature and PFS within the treatment arm: did not differentiate PFS
[5]; within sunitinib arm, in words
  PFS in the Angio High subgroup versus the Angio Low subgroup: improved PFS
[5]; within treatment arm
  PFS HR (95% CI) for Angiogenesis (High versus Low): 0.59 (0.47, 0.75)
